From ChEMBL document CHEMBL1134102, “The binding of arylguanidines at 5-HT(3) serotonin receptors: a structure-affinity investigation” (Bioorg Med Chem Lett, 2001)

Target: Serotonin 3 (5-HT3) receptor
Assay: Binding affinity to 5-HT3 serotonin receptor in NG 108-15 neuroblastoma glioma cells using [3H]GR-65630 radioligand.

SMILES | Ki [nM]
N=C(N)Nc1cc(Cl)c(Cl)c(Cl)c1 | 0.7
N=C(N)NC(=N)Nc1cccc(Cl)c1 | 18
NC(N)=Nc1cccc(Cl)c1 | 32
Nc1nc(Nc2cccc(Cl)c2)n[nH]1 | > 10000
N=C(N)NC(=N)Nc1cc(Cl)c(Cl)c(Cl)c1 | 2.7
N=C(N)Nc1cc(Cl)cc(Cl)c1 | 5
C/N=C(\N)Nc1cccc(Cl)c1 | 450
Clc1cccc(NC2=NCCN2)c1 | > 10000
Cc1ccc(NC(=N)N=C(N)N)cc1 | 890
COc1ccc(NC(=N)N)cc1 | 990
NC(N)=Nc1ccc2ccccc2c1 | 18
C/N=C(\NC)Nc1cccc(Cl)c1 | > 10000
N=C(N)N=C(N)Nc1cc(Cl)cc(Cl)c1 | 1.8
N=C(N)Nc1ccc(Cl)c(Cl)c1 | 3.1
N=C(N)Nc1ccc(Cl)cc1 | 326
CN(C(=N)N)c1cccc(Cl)c1 | 6200
N=C(N)NC(=N)Nc1ccc(Cl)c(Cl)c1 | 12
COc1ccc(NC(=N)N)cc1OC | 2710
N=C(N)N=C(N)Nc1ccc2ccccc2c1 | 14
N=C(N)Nc1ccc(Cl)c(C(F)(F)F)c1 | 36
Cc1ccc(NC(=N)N)cc1 | 442
N=C(N)Nc1ccc(C(F)(F)F)cc1 | 230
N=C(N)Nc1ccc2c(c1)OCO2 | 274
NC(N)=Nc1cccc(C(F)(F)F)c1 | 2440
N=C(N)NC(=N)Nc1ccc(Cl)cc1 [4-CHLOROPHENYLBIGUANIDE] | 210
